From patent US20220380430A1, “Non-Transgenic Functional Rescue of Neuropeptides” (Worcester Polytechnic Institute, priority 2021, published 2022)
No end group written: not given here.

Assays:
trh-1 mutant worms = assay: Size comparison (body volume) after rescue-by-feeding; type: in vivo, C. elegans; settings: trh-1 mutant animals fed peptide; N2 set as 100%
Description: All animals were maintained on bacterial lawns of OP50 E. coli, at 20° C., on NGM agar plates until the start of experiments. Mutant or control animals were transferred onto lawns of DH5α E. coli expressing either scramble peptide or the rescue peptide-of-interest on NGM plates containing […] AMP and 1 mM IPTG. Animals were reared on the peptide-expressing lawns for at least 48 hours at 20° C. before assaying for rescue of mutant phenotype at the appropriate developmental stage.
The body morphology different of trh-1 mutants was compared to wild-type worms by body volume measurements. Wild-type (N2) and trh-1 animals were synchronized by embryonic starvation following alkaline hypochlorite protocols. Ten gravid hermaphrodites from OP50 E. coli plates were picked into 30 μL drops of alkaline hypochlorite solution (20% sodium hypochlorite, 500 mM KOH). Two drops were placed on either side of an unseeded NGM plate, resulting in 20 animals per plate. Plates were then incubated for 24 hours at 20° C. before L1 larval animals washed with 1 mL M9 (22 mM KH2PO4, 42.25 mM Na2HPO4, 85.5 mM NaCl, 1 mM MgSO4) per unseeded NGM plate. Allow L1 worms to settle into pellet before removing M9 supernatant. Repeat washing step 2 more times. Plate worm pellet onto NGM with […] AMP and 1 mM IPTG plates containing 75 μL peptide lawns.
After at 48 hours at 20° C., animals were recorded using a Basler acA2500-14 uM camera using WormLab software (WormLab 4.1; MBF Bioscience, 2017) for 65 seconds. Worm length, width, and area were calculated within the WormLab software (FIG. 5C-FIG. 5H). As the WormLab worm width metric is an average of cross-sections throughout the length of each worm, this was used to calculate the volume of a worm as a cylinder, with the Volume=π*(0.5*width)^2*length (FIG. 2A-FIG. 2B, FIG. 5A-FIG. 5B).
Two to four plates were recorded per day for at least three days to generate data sets. Control plates of N2 and trh-1 animals raised on the scramble peptide were grown alongside every rescue feeding. Each “worm track” was considered an n=1. Tracks were excluded if (1) worm tracks less than 10 seconds, or (2) worms were further than two standard deviations from the mean metric. Following tests for normality, comparisons were made using either Mann-Whitney tests for direct comparisons between N2 and trh-1 animals reared on OP50, or Kruskal-Wallis non-parametric ANOVAs and Dunn's multiple comparisons tests for animals raised on peptide feeding strains. Comparisons were made for metrics: length (FIG. 5C-FIG. 5D), width (FIG. 5e-FIG. 5F), area (FIG. 5G-FIG. 5H), and volume (FIG. 2A-FIG. 2B, FIG. 5A-FIG. 5B).

him-5 and pdf-1 males = assay: Excursion (food-leaving) assay after rescue-by-feeding; type: in vivo, C. elegans; settings: Probability of Leaving per hour, beyond 35 mm from food
Source text: We quantified the behavioral activity of pdf-1 lof males using a food-leaving behavior as previously described. Individuals were placed on a small food spot, and track patterns were scored at three different time points (2, 6, 24 hrs) (FIG. 4A). “Never left food” indicate the absence of tracks outside the food spot. […] “Major excursion” indicates the presence of tracks past the 1 cm boundary (FIG. 1B, Excursion Assay). The food-leaving behavior was quantified as a measure of mate-searching behavior. In this behavior well-fed males left food in search of mates and the data is represented as a Probability of Leaving (PL) (FIG. 7A).
The mate searching behavior of pdf-1 mutants was quantified in a food leaving assay. him-5 animals were used as wild-type control to ensure the presence of males. him-5 and pdf-1 animals were fed OP50, scramble peptide, PDF-1A, PDF-1B, or a 1:1 mixture of PDF-1A and PDF-1B cultures. Four to six larval L4 hermaphrodites were passed onto an NGM plate containing […] AMP and 1 mM IPTG with 75 μL of peptide. These worms were grown at 20° C. for about 4 days until the male progeny of the initial L4 worms were young adults. The day prior to the assay, young adult male pdf-1 or him-5 worms were singled onto 60 mm plates containing lawns of either OP50 (NGM plates) or appropriate peptide cultures (NGM containing […] AMP and 1 mM IPTG). To determine the mate searching effects of pdf-1, we performed a food-leaving assay as described previously in Barrios, A., et al., Nat Neurosci 15, 1675-1682 (2012); Lipton, J., et al., The Journal of neuroscience: the official journal of the Society for Neuroscience 24, 7427-7434 (2004); Ryan, D. A. et al. Curr Biol 24, 2509-2517 (2014), with modifications. In this assay, individuals were placed on a small food spot, and track patterns were scored at the indicated times. Assay plates were prepared one day prior to assaying on 100 mm plates with 10 mL of Leaving Assay media (25 mM KPO4 (pH 6.0), 1 mM MgSO4, 1 mM CaCl2), 50 mM NaCl, 2.5 g/L Peptone, 17 g/L Agar). On center of plate, 7 μL of OP50 was added. Plates were lightly covered and stored at room temperature overnight (˜20° C., <40% humidity).
On the day of the assay, a single male was plated on the assay plate and placed in a dark, 20° C. incubator. At 2, 6, and 24 hours after the worms are plated, plates were scored for male worm tracks. Scored were separated into binned ranges. “Never left food” indicates the absence of tracks outside the food spot. […] “Major excursion” indicates the presence of tracks past the 1 cm boundary. The food leaving behavior was quantified at three different time points (2, 6, and 24 hours). (FIG. 4A, FIG. 7A, Table IV).
The mate searching defect of pdf-1 was quantified as a Probability of Leaving per hour (PL) (FIG. 4B, FIG. 7B).
The assay was performed across at least two days per condition, with at least n=50, wherein each assay plate with one male is equal to n=1. In all experiments, the investigators were blinded to genotype. Worm in the >35 mm from the center of food bin were scored as “leavers”. The probability of leaving per hour (Probability of Leaving (PL)) was calculated using an R script developed in Barrios et al., with assistance by (Personal Communications to Barrios, 2020). PL was calculated by the “hazard obtained by fitting an exponential parametric survival model to the censored data using maximum likelihood” (Table IV). The PLh-1 values for all pdf-1 animals fed scramble or peptide rescue were compared to him-5 worms fed scramble using an ANOVA followed by Bonferroni's multiple comparison (FIG. 4B, FIG. 7C).

NSKLHRGGGRSRTSGSTGSMASHARGSPGLQ-NH2 [SCRAMBLE, scramble control peptide expressed in E. coli DH5α, negative control, reference compound]
Relative Body Volume (trh-1 mutant worms): ~120% | PL (confidence interval) (him-5 and pdf-1 males; him-5 males): 0.07727 (0.06532, 0.09141) | PL (confidence interval) (him-5 and pdf-1 males; pdf-1 males): 0.03538 (0.02747, 0.04556)
